Assay results reported in patent publication EP0434360A1, “New benziodiazepine analogs” (MERCK & CO. INC., priority 1989, dated 1991).
Read-outs that look alike come from different tables or passages of the source.

Tests used:
[1] = biological target: T1, CCK receptor (pancreas) (Rattus norvegicus, UniProt P30551); assay: CCK Receptor Binding (Pancreas), inhibition of 125I-CCK-33 binding
T1 construct: The whole pancreas was dissected free of fat tissue and was homogenized; from tissue; host or cells: rat whole pancreas membrane homogenate
T1 sequence (P30551 1-444): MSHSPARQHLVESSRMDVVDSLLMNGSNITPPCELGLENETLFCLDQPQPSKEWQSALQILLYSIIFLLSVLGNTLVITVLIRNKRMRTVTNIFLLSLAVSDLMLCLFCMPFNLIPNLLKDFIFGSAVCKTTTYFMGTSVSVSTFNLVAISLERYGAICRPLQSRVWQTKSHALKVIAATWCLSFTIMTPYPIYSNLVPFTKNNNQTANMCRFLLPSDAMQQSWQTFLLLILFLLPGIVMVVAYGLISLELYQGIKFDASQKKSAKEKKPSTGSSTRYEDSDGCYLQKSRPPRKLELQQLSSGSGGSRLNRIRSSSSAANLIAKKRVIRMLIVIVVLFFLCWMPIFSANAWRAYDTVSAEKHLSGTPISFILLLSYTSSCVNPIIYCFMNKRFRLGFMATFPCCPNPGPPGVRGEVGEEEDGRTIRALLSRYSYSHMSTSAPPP
Experimental: 1. CCK Receptor Binding (Pancreas)
CCK-33 was radiolabeled with ^1251-Bolton Hunter reagent (2000 Cilmmole) as described by Sankara et al. (J. Biol. Chem. 254: 9349-9351, 1979). Receptor binding was performed according to Innis and Snyder (Proc. Natl. Acad. Sci. 77 6917-6921, 1980) with the minor modification of adding the additional protease inhibitors, phenyl-methane sulfonyl fluoride and o-phenanthroline.
Male Sprague-Dawley rats (200-350 g) were sacrificed by decapitation. The whole pancreas was dissected free of fat tissue and was homogenized in 20 volumes of ice-cold 50 mM, Tris HCI (pH 7.7 at 25°C) with a Brink- mann Polytron PT 10. The homogenates were centrifuged at 48,000 g for 10 min. Pellets were resuspended in Tris Buffer, centrifuged as above and resuspended in 200 volumes of binding assay buffer (50 mM Tris HCI, pH 7.7 at 25°C, 5 mM dithiothrietol, 0.1 mM bacitracin, 1.2 mM phenyl-methane sulfonyl fluoride and 0.5 mM o-phenanthroline). […] All assays were run in duplicate or triplicate. The reaction mixtures were incubated at 37°C for30 minutes and centrifuged in a Beckman Microfuge (4 minutes) immediately after adding 1 ml of ice-cold incubation buffer. The supernatant was aspirated and discarded, pellets were counted with a Beckman gamma 5000. For Scatchard analysis (Ann. N.Y. Acad. Sci. 51 : 660, 1949), ^125I-CCK-33 was progressively diluted with increasing concentrations of CCK-33.

[2] = biological target: T2, gastrin receptor (gastric glands) (Cavia porcellus, UniProt H0VZC5); assay: Gastrin Receptor Binding in Guinea Pig Gastric Glands
T2 construct: The washed guinea pig gastric glands prepared as above were resuspended in 25 ml of standard buffer; from tissue; host or cells: isolated guinea pig gastric mucosal glands (collagenase-dispersed)
T2 sequence (H0VZC5 1-426): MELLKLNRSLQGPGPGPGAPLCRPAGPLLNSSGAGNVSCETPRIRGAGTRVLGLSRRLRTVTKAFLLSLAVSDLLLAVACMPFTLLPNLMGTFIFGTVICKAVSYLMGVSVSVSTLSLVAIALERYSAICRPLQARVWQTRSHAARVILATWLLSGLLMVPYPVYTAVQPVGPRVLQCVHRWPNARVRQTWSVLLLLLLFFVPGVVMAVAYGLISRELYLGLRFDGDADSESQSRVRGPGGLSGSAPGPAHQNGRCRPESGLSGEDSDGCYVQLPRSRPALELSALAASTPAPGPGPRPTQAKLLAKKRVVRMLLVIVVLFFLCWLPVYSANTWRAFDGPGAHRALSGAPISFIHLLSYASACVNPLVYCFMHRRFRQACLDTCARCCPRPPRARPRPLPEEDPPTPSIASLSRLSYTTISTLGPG

[3] = biological target: T3, CCK receptor (brain, cerebral cortex) (Cavia porcellus, UniProt H0VZC5); assay: CCK Receptor Binding (Brain), inhibition of 125I-CCK-33 binding; parameters: species or system guinea pig
T3 construct: Cerebral cortex was dissected and used as a receptor source; from tissue; host or cells: guinea pig cerebral cortex membrane homogenate
T3 sequence (H0VZC5 1-426): T2 sequence (H0VZC5 1-426)
Experimental: 2. CCK Receptor Binding (Brain)
CCK-33 was radiolabeled and the binding was performed according to the description for the pancreas method with modifications according to Saito et al., J. Neurochem. 37: 483-490, 1981.
Male Hartley guinea pigs (300-500 g) were sacrificed by decapitation and the brains were removed and placed in ice-cold 50 mM, Tris HCI plus 7.58 g/l Trizma-7.4 (pH 7.4 at 25°C). Cerebral cortex was dissected and used as a receptor source. Each gram of fresh guinea pig brain tissue was homogenized in 10 ml of Tris/Trizma buffer with a Brinkman polytron PT-10. The homogenates were centrifuged at 42,000 g for 15 minutes. Pellets were resuspended in Tris Buffer, centrifuged as above and resuspended in 200 volumes of binding assay buffer (10 mM N-2-hydroxyethyl-piperazine-N'-2-ethane sulfonic acid (HEPES), 5 mM MgCl2, 0.25 mg/ml bacitracin, 1 mM ethylene glycol-bis-(β-aminoethylether-N,N'-tetraacetic acid) (EGTA), and 0.4% bovine serum albumin (BSA)). […] All assays were run in duplicate or triplicate. The reaction mixtures were incubated at 25°C for 2 hours and centrifuged in a Beckman Microfuge (4 minutes) immediately after adding 1 ml of ice-cold incubation buffer. The supernatant was aspirated and discarded, pellets were counted with a Beckman gamma 5000.

[4] = guinea pig cerebral cortex membranes, 125I-CCK-33, 25°C 2 hours, read-out: IC50(µM) ^125I-CCK Brain
[5] = rat pancreas membranes, 125I-CCK-33, 37°C 30 minutes, read-out: IC50(µM) ^125I-CCK Pancreas
[6] = guinea pig gastric mucosal glands, 125I-gastrin, 25°C 30 minutes, read-out: IC50(µM) ^125I-Gastrin Gastric Glands

SMILES | IC50 [1] [µM] | IC50 [2] [µM] | IC50 [3] [µM] | IC50 [3, 4] [µM] | IC50 [1, 5] [µM] | IC50 [2, 6] [µM]
Cc1cccc(NC(=O)NC2N=C(c3ccccc3)c3ccccc3N(CCO)C2=O)c1 (stereo not shown) [Example 17, N-(2,3-Dihydro-1-(2-hydroxyethyl)-2-oxo-5-phenyl-1 H-1,4-benzodiazepin-3-yl)-N'-(3-methylphenyl)-urea] | 0.069 | 0.0038 | 0.012 |  |  | 
CN1C(=O)C(NC(=O)c2cc3cc(OCC(=O)O)ccc3[nH]2)N=C(c2ccccc2)c2ccccc21 (stereo not shown) [Example 16, 1,3-Dihydro-3-(5-carboxymethyloxyindole-2-carbonylamino)-1-methyl-5-phenyl-2H-1,4-benzodiazepin 2-one] | 0.023 |  |  | 0.16 |  | 
CN1C(=O)C(NC(=O)Nc2ccc(N)nc2)N=C(c2ccccc2)c2ccccc21 (racemic) [Example 14, (RS)-N-(6-Amino-3-pyridyl)-N'-(2,3-dihydro-l-methyl-2-oxo-5-phenyl-1H-1,4-benzodiazepin-3-yl)-urea] |  | 0.4 | 0.011 |  | 2.7 | 
CN1C(=O)[C@@H](NC(=O)c2cc3ccccc3n2CC(=O)O)N=C(c2ccccc2)c2ccccc21 [Example 6, 3(S)-3-(2-(N-carboxymethylindole)carbonylamino)-1,3-dihydro-1-methyl-5-phenyl-2H-1,4-benzodiazepin-2-one] | 0.00013 |  |  | 0.129 |  | 0.07
CN1C(=O)[C@H](NC(=O)Nc2cccc(C(=O)O)c2)N=C(c2ccccc2)c2ccccc21 [Example 10, (R)-3-((((2,3-Dihydro-l-methyl-2-oxo-5-phenyl-1H-1,4-benzodiazepin-3-yl)amino)carbonyl)amino)benzoic a cid] |  | 0.009 | 0.0039 |  | 0.049 | 
Cc1cccc(NC(=O)N[C@@H]2N=C(c3ccccc3)c3ccccc3N(C)C2=O)c1 [Example 5, (R)-N-(2,3-Dihydro-1-methyl-2-oxo-5-phenyl-1 H-1,4-benzodiazepin-3-yl)-N'-(3-methylphenyl)-urea] |  | 0.0011 | 0.002 |  |  | 
O=C(NC1N=C(c2ccccc2)c2ccccc2N(CCO)C1=O)c1cc2ccccc2[nH]1 (racemic) [Example 12, (RS)-N-(2,3-Dihydro-1-(2-hydroxyethyl)-2-oxo-5-phenyl-1 H-1,4-benzodiazepin-3-yl)-1 H-indole-2-carboxamide] | 0.0024 |  |  | 0.16 |  | 0.24
CN1C(=O)C(NC(=O)Nc2cccc(C(=O)O)c2)N=C(c2ccccc2)c2ccccc21 (racemic) [Example 9, (RS)-3-((((2,3-Dihydro-1-methyl-2-oxo-5-phenyl-1 H-1,4-benzodiazepin-3-yl)amino)carbonyl)amino)benzoic acid] | 0.049 | 0.009 | 0.0039 |  |  | 
COc1cccc(NC(=O)NC2N=C(c3ccccc3)c3ccccc3N(CCN(C)C)C2=O)c1 (stereo not shown) [Example 18, N-(2,3-Dihydro-1-(2-dimethylaminoethyl)-2-oxo-5-phenyl-1H-1,4-benzodiazepin-3-yl) -N'-(3-methoxyphenyl)-urea] | 2.6 | 0.01 | 0.024 |  |  | 
CN1C(=O)C(NC(=O)Nc2cc3c(cn2)[nH]c2ccccc23)N=C(c2ccccc2)c2ccccc21 (racemic) [Example 13, (RS)-N-(2,3-Dihydro-1-methyl-2-oxo-5-phenyl-1H-1,4-benzodiazepin-3-yl)-N'-9H-pyrido(3,4-b)indol-3-yl-urea] | 0.014 |  | 0.071 |  |  | 6.4
CCOC(=O)c1cccc(NC(=O)N[C@@H]2N=C(c3ccccc3)c3ccccc3N(C)C2=O)c1 [Example 19, (R)-3-((((2,3-Dihydro-1-methyl-2-oxo-5-phenyl-1H-1,4-benzodiazepin-3-yl)amino)carbonyl)amino)benzoic acid ethyl ester] | 0.02 |  |  | 0.026 |  | 0.018
CN1C(=O)[C@@H](NC(=O)c2cc3ccccc3n2CCCC(=O)O)N=C(c2ccccc2)c2ccccc21 [Example 7, (S)-4-[-2-(((2,3-Dihydro-1-methyl-2-oxo-5-phenyl-1H-1,4-benzodiazepin-3-yl)amino)carbonyl)-1H-indolyl-1]-bu tanoic acid] | 0.0001 |  |  | 0.23 |  | 0.24
